Reference: patent US20070225248A1 (Clavis Pharma AS, priority 2006, published 2007)
Like-named read-outs stand apart in the source and are kept apart here. Marks after values point to notes of the source that are not given here.

What was measured:
[1] = tested on: Colon 6044 (human colon carcinoma); test: Antitumour activity in Co6044 after oral administration, different dosing schedules (Table 4); format: in vivo, mice; details: for Toxic deaths (d): 7 mice; for Optimum T/C [%] (on day): significant vs saline
Description: Antitumour Activity of Elaidic Acid (5′)-Gemcitabine Ester in Co6044 After Oral Administration

[2] = Maximum tolerated dose, administration every third day repeated five times; format: in vivo, mice; details: administered every third day
Description: This is shown below by the experiments presented in table 1 and table 2 using different mice strains and also different human colon xenografts.

[3] = tested on: Colon 6044 (human colon carcinoma)
[4] = tested on: Colon 5776 (human colon carcinoma); test: Antitumour activity in human colon cancer xenograft Co5776, IP treatment; details: for Toxic deaths (d): 8 NCR:nu/nu female mice; for Optimum T/C [%] (volume of treated tumour versus control tumour): significant vs saline; for antitumour activity in terms of reductions in tumor growth (in words): FIG. 1
Description: (§1) Human colon cancer Co5776 was inserted to Ncr:nu/nu female mice subcutaneously, and treatment started when tumors reached a mean volume of 100 mm^3.

[5] = tested on: Co6044 (human colon carcinoma); test: Antitumour activity in human colon cancer xenograft Co6044, IP treatment; details: for Toxic deaths (d): 8 mice; for Optimum T/C [%]: significant vs saline
Description: (§2) Treatment started when the tumors reached a mean volume of 100 mm^3.

[6] = tested on: Colon 5776 (human colon carcinoma); details: mouse, in vivo, ip, 120 mg/kg
Description: as §1

[7] = tested on: Co6044 (human colon carcinoma); details: mouse, in vivo, ip, 120 mg/kg
Description: as §2

[8] = Oral 10 mg/kg, D 7, 10, 13, 16, 19
[9] = Oral 15 mg/kg, D 7, 10, 13, 16, 19
[10] = IP 40 mg/kg, D8, 11, 14, 17, 20
[11] = IP 120 mg/kg, D8, 11, 14, 17, 20

CCCCCCCC/C=C/CCCCCCCC(=O)OC[C@H]1O[C@@H](n2ccc(N)nc2=O)C(F)(F)[C@@H]1O [Elaidic acid (5′)-gemcitabine ester, elaidic acid (5′)-gemcitabine ester]
BWC [%] ([1]; Oral 5 mg/kg, D 7-11): −3%
Toxic deaths (d) ([1]; Oral 5 mg/kg, D 7-11): 0
Optimum T/C [%] (on day) ([1]; Oral 5 mg/kg, D 7-11, optimum on day 28): 10(28)* %
BWC [%] [1, 8]: −1%
Toxic deaths (d) [1, 8]: 0
Optimum T/C [%] (on day) ([1]; Oral 10 mg/kg, D 7, 10, 13, 16, 19, optimum on day 24): 35(24)* %
BWC [%] ([1]; Oral 10 mg/kg, D 7-11): −5%
Toxic deaths (d) ([1]; Oral 10 mg/kg, D 7-11): 0
Optimum T/C [%] (on day) ([1]; Oral 10 mg/kg, D 7-11, optimum on day 17): 8(17)* %
BWC [%] [1, 9]: −1%
Toxic deaths (d) [1, 9]: 0
Optimum T/C [%] (on day) ([1]; Oral 15 mg/kg, D 7, 10, 13, 16, 19, optimum on day 24): 27(24)* %
BWC [%] ([1]; Oral 20 mg/kg, D 7, 10, 13, 16, 19): −3%
Toxic deaths (d) ([1]; Oral 20 mg/kg, D 7, 10, 13, 16, 19, death on day 17): 1(17)
Optimum T/C [%] (on day) ([1]; Oral 20 mg/kg, D 7, 10, 13, 16, 19, optimum on day 24): 16(24)* %
BWC [%] ([1]; Oral 50 mg/kg, D 7, 14): 0%
Toxic deaths (d) ([1]; Oral 50 mg/kg, D 7, 14): 0
Optimum T/C [%] (on day) ([1]; Oral 50 mg/kg, D 7, 14, optimum on day 17): 22(17)* %
BWC [%] ([1]; Oral 100 mg/kg, D 7, 14): −4%
Toxic deaths (d) ([1]; Oral 100 mg/kg, D 7, 14, death on day 20): 1(20)
Optimum T/C [%] (on day) ([1]; Oral 100 mg/kg, D 7, 14, optimum on day 24): 4(24)* %
activity after oral administration (in words) ([1]; oral, all tested schedules): High dose dependent activity
significance of antitumour activity (in words) ([1]; oral, all the tested schedules): Significant antitumour activity
maximum tolerated dose [2]: 40 mg/kg per injection
BWC [%] D 13 ([3]; Oral 40 mg/kg, Q3 × 5, D 13): −7%
Toxic deaths (d) ([3]; Oral 40 mg/kg, Q3 × 5, deaths on day 15): 2/8 (15)
Optimum T/C [%] (on day) ([3]; Oral 40 mg/kg, Q3 × 5, optimum on day 27, significant vs saline): 5(27)* %
Optimum T/C [%] (on day) ([3]; Oral 60 mg/kg, Q3 × 5): Toxic
BWC [%] D 13 ([3]; Oral 60 mg/kg, Q3 × 5, D 13): −9%
Toxic deaths (d) ([3]; Oral 60 mg/kg, Q3 × 5, deaths days 12-24): 6/8(12-24)
Optimum T/C [%] (on day) ([3]; Oral 80 mg/kg, Q3 × 5): Toxic
BWC [%] D 13 ([3]; Oral 80 mg/kg, Q3 × 5, D 13): −6%
Toxic deaths (d) ([3]; Oral 80 mg/kg, Q3 × 5, deaths days 16-22): 6/8(16-22)
activity and tolerability when given orally (in words) ([3]; oral, 40 mg/kg): highly active and tolerable
BWC [%] (body weight change) [4, 10]: −4%
Toxic deaths (d) [4, 10]: 0
Optimum T/C [%] (volume of treated tumour versus control tumour) [4, 10]: 17* %
antitumour activity in terms of reductions in tumor growth (in words) ([4]; IP 40 mg/kg): high antitumour activity
antitumor effect (in words) ([5]; IP 40 mg/kg every third day for five times): Excellent antitumor effect
Toxic deaths (d) [5, 10]: 0
BWC D 8-15 (body weight change) ([5]; IP 40 mg/kg, D8, 11, 14, 17, 20, D 8-15): −1
Optimum T/C [%] [5, 10]: 19* %

Nc1ccn([C@@H]2O[C@H](CO)[C@@H](O)C2(F)F)c(=O)n1 [Gemcitabine, 2′,2′-difluorodeoxycytidine, reference compound]
maximum tolerated dose [2]: approximately 120 mg/kg per injection
BWC [%] (body weight change) [6]: −5%
BWC D 8-15 (body weight change) [7]: −3
BWC [%] D 13 ([3]; mouse, in vivo, po, 120 mg/kg): −16%
BWC [%] D 13 ([3]; mouse, in vivo, po, 180 mg/kg): −22%
BWC [%] D 13 ([3]; mouse, in vivo, po, 240 mg/kg): −21%
Toxic deaths (d) ([4]; IP 120 mg/kg, D8, 11, 14, 17, 20, death on day 18): 1(18)
Optimum T/C [%] (volume of treated tumour versus control tumour) [4, 11]: 17* %
antitumour activity in terms of reductions in tumor growth (in words) ([4]; IP 120 mg/kg): high antitumour activity
antitumor effect (in words) ([5]; IP 120 mg/kg every third day for five times): Excellent antitumor effect
Toxic deaths (d) [5, 11]: 0
Optimum T/C [%] [5, 11]: 15* %
